One may read the IC50 as the midpoint of a concentration-inhibition curve. Higher therefore signals lower potency.

This passage reports IC50 results from patent US10766893B2 (priority 2017, dated 2020).

Common to all, as to experiment: biochemical
Holding throughout (format): biochemical
Holding throughout (settings): 15 nM tritium labelled cAMP, 1 hr at room temperature

In one experiment the target is PDE1A (Homo sapiens (Human), UniProt P54750). An excerpt:
(§1) Table 1 lists the IC50 value for inhibition of PDE1 by the compounds of the invention. […] PDE1 assays are described in the Experimental Section.

In the next experiment the target is PDE1B (Homo sapiens (Human), UniProt Q01064).
Sequence of PDE1B (Q01064 whole entry): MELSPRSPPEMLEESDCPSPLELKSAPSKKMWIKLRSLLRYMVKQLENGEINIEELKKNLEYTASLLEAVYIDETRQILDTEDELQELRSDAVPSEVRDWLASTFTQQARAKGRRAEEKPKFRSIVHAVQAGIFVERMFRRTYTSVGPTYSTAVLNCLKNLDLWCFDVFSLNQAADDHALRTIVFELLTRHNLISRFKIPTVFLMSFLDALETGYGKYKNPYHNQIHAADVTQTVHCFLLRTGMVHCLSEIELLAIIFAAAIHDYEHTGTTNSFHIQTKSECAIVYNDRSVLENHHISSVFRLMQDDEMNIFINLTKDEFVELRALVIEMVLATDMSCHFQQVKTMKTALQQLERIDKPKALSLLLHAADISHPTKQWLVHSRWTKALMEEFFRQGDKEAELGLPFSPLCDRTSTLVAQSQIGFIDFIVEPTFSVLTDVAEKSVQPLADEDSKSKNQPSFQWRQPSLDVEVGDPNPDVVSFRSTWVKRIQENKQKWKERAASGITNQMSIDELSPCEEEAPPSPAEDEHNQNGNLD
From the text: as §1

A further experiment deals with PDE1C (Homo sapiens (Human), UniProt Q14123).
Sequence of PDE1C (Q14123 whole entry): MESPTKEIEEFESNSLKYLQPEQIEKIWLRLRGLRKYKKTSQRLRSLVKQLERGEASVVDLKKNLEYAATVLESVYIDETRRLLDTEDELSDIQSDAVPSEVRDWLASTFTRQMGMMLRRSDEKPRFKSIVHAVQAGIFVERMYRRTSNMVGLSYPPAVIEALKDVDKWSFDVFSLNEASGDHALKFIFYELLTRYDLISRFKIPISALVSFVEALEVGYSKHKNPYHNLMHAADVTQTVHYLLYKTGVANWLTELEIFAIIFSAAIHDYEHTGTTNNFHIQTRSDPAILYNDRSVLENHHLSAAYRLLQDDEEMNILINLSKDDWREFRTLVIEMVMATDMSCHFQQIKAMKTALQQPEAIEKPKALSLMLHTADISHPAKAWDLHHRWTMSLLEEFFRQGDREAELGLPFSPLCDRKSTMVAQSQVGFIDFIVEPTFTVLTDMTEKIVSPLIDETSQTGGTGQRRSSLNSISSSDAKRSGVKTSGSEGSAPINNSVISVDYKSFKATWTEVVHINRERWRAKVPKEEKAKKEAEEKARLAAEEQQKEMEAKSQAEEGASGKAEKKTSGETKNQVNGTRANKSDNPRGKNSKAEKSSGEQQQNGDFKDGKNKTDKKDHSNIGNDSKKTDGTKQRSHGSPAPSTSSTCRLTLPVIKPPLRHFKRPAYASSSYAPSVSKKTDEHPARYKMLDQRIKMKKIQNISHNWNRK
From the text: as §1

Sequence of PDE1A (P54750 whole entry): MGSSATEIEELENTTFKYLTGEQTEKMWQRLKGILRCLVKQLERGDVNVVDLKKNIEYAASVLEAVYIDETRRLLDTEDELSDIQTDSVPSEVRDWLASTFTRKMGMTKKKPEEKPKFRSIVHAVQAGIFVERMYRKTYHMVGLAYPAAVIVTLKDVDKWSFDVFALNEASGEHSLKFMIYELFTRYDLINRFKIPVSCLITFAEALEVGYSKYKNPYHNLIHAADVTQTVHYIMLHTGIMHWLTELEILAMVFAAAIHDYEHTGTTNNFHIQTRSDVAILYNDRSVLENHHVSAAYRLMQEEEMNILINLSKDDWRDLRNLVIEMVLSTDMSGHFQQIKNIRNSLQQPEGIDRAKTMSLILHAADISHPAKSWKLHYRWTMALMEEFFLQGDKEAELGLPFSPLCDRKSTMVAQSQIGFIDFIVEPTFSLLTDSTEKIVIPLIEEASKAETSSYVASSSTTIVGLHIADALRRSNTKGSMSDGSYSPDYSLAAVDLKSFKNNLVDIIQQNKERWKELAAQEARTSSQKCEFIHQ

Take `CCOc1ncccc1-c1cc(NCc2cccc3nsnc23)c2c(n1)c(C)nn2C(C)C` [Example 2a, N-(2,1,3-benzothiadiazol-4-ylmethyl)-5-(2-ethoxy-3-pyridyl)-1-isopropyl-3-methyl-pyrazolo[4,3-b]pyridin-7-amine]: the IC50 at PDE1A came out at 53 nM; against PDE1B it was 3.4 nM; against PDE1C, 140 nM.

With `Cc1nn(C(C)C)c2c(NCc3cnn(C)c3)cc(-c3cccc4cc[nH]c34)nc12` [Example 38b, 5-(1H-indol-7-yl)-1-isopropyl-3-methyl-N-[(1-methylpyrazol-4-yl)methyl]pyrazolo[4,3-b]pyridin-7-amine], the IC50 on PDE1A was 590 nM; against PDE1B, 100 nM; on PDE1C it was 350 nM.

`CCOc1nnccc1-c1cc(NCc2cccnc2OC)c2c(n1)c(C)nn2C(C)C` [Example 7b, 5-(3-ethoxypyridazin-4-yl)-1-isopropyl-N-[(2-methoxy-3-pyridyl)methyl]-3-methyl-pyrazolo[4,3-b]pyridin-7-amine]: the values for the IC50 against PDE1A and at PDE1B were 11 nM and 1.7 nM, respectively.

Consider `CCOc1nnccc1-c1cc(NCc2cccc(OC)n2)c2c(n1)c(C)nn2C(C)C` [Example 24b, 5-(3-ethoxypyridazin-4-yl)-1-isopropyl-N-[(6-methoxy-2-pyridyl)methyl]-3-methyl-pyrazolo[4,3-b]pyridin-7-amine], for which the IC50 at PDE1B turned out to be 1.4 nM; on PDE1C it was 71 nM.

Regarding `Cc1nc2c(-c3cc(NCc4cnn(C)c4)c4c(n3)c(C)nn4C(C)C)cccc2o1` [Example 35b, 1-isopropyl-3-methyl-5-(2-methyl-1,3-benzoxazol-4-yl)-N-[(1-methylpyrazol-4-yl)methyl]pyrazolo[4,3-b]pyridin-7-amine], the IC50 at PDE1A turned out to be 39 nM; against PDE1C, 43 nM.

`CCOc1cnccc1-c1cc(NCc2cnn(C)c2)c2c(n1)c(C)nn2C(C)C` [Example 28b, 5-(3-ethoxy-4-pyridyl)-1-isopropyl-3-methyl-N-[(1-methylpyrazol-4-yl)methyl]pyrazolo[4,3-b]pyridin-7-amine]: the figures for the IC50 on PDE1B and against PDE1C were 2.1 nM and 33 nM, respectively.

In the case of `CCOc1ncccc1-c1cc(NCc2cccn3cnnc23)c2c(n1)c(C)nn2C(C)C` [Example 3a, 5-(2-ethoxy-3-pyridyl)-1-isopropyl-3-methyl-N-([1,2,4]triazolo[4,3-c]pyridin-8-ylmethyl)pyrazolo[4,3-b]pyridin-7-amine], the values for the IC50 on PDE1A and on PDE1B were 4.7 nM and 0.32 nM, respectively.

For the compound `CCOc1nnccc1-c1cc(NCc2cccc3oc(C)nc23)c2c(n1)c(C)nn2C(C)C` [Example 14a, 5-(3-ethoxypyridazin-4-yl)-1-isopropyl-3-methyl-N-[(2-methyl-1,3-benzoxazol-4-yl)methyl]pyrazolo[4,3-b]pyridin-7-amine], the IC50 against PDE1A amounted to 9.3 nM; against PDE1B, 0.21 nM.

Take `CCOc1nnccc1-c1cc(NCc2cc(C)[nH]n2)c2c(n1)c(C)nn2C(C)C` [Example 22b, 5-(3-ethoxypyridazin-4-yl)-1-isopropyl-3-methyl-N-[(5-methyl-1H-pyrazol-3-yl)methyl]pyrazolo[4,3-b]pyridin-7-amine]: the IC50 against PDE1B was determined as 0.4 nM; against PDE1C it was 15 nM.

Consider `CCOc1nnccc1-c1cc(NCc2ccccn2)c2c(n1)c(C)nn2C(C)C` [Example 14b, 5-(3-ethoxypyridazin-4-yl)-1-isopropyl-3-methyl-N-(2-pyridylmethyl)pyrazolo[4,3-b]pyridin-7-amine], for which the concentration for half-maximal inhibition (IC50) at PDE1B came out at 1.1 nM; on PDE1C it was 53 nM.

On to `CCOc1nnccc1-c1cc(NCc2cccc(F)n2)c2c(n1)c(C)nn2C(C)C` [Example 26b, 5-(3-ethoxypyridazin-4-yl)-N-[(6-fluoro-2-pyridyl)methyl]-1-isopropyl-3-methyl-pyrazolo[4,3-b]pyridin-7-amine], for which the IC50 came to 6.5 nM against PDE1A and 44 nM against PDE1C.
